Reference: PubChem BioAssay (NCI)
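GI50 = concentration required for 50% inhibition of growth. Definition used: TGI = concentration required for complete inhibition of growth.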

Assays:
Experiment in all cases: NCI tumour cell line growth inhibition, 384-well format
786-0 renal = tested on: 786-0 renal
A549 NSCLC = tested on: A549 NSCLC
BT-549 breast = tested on: BT-549 breast
CCRF-CEM leukemia = tested on: CCRF-CEM leukemia
COLO 205 colon = tested on: COLO 205 colon
HCC-2998 colon = tested on: HCC-2998 colon
HCT-116 colon = tested on: HCT-116 colon
HCT-15 colon = tested on: HCT-15 colon
HL-60(TB) leukemia = tested on: HL-60(TB) leukemia
HOP-62 NSCLC = tested on: HOP-62 NSCLC
HS 578T breast = tested on: HS 578T breast
IGROV1 ovarian = tested on: IGROV1 ovarian
KM12 colon = tested on: KM12 colon
LOX IMVI melanoma = tested on: LOX IMVI melanoma
MALME-3M melanoma = tested on: MALME-3M melanoma
MCF7 breast = tested on: MCF7 breast
MDA-MB-231 breast = tested on: MDA-MB-231 breast
MDA-MB-435 melanoma = tested on: MDA-MB-435 melanoma
MDA-MB-468 breast = tested on: MDA-MB-468 breast
MOLT-4 leukemia = tested on: MOLT-4 leukemia
NCI-H23 lung = tested on: NCI-H23 lung
NCI-H322M lung = tested on: NCI-H322M lung
NCI-H460 NSCLC = tested on: NCI-H460 NSCLC
NCI-H522 lung = tested on: NCI-H522 lung
NCI/ADR-RES ovarian = tested on: NCI/ADR-RES ovarian
OVCAR-3 ovarian = tested on: OVCAR-3 ovarian
OVCAR-4 ovarian = tested on: OVCAR-4 ovarian
OVCAR-5 ovarian = tested on: OVCAR-5 ovarian
OVCAR-8 ovarian = tested on: OVCAR-8 ovarian
PC-3 prostate = tested on: PC-3 prostate
RPMI-8226 leukemia = tested on: RPMI-8226 leukemia
RXF 393 renal = tested on: RXF 393 renal
SF-268 CNS = tested on: SF-268 CNS
SF-295 CNS = tested on: SF-295 CNS
SF-539 CNS = tested on: SF-539 CNS
SK-MEL-2 melanoma = tested on: SK-MEL-2 melanoma
SK-MEL-28 melanoma = tested on: SK-MEL-28 melanoma
SK-OV-3 ovarian = tested on: SK-OV-3 ovarian
SNB-19 CNS = tested on: SNB-19 CNS
SNB-75 CNS = tested on: SNB-75 CNS
SR leukemia = tested on: SR leukemia
SW-620 colon = tested on: SW-620 colon
T-47D breast = tested on: T-47D breast
TK-10 renal = tested on: TK-10 renal
U251 glioblastoma = tested on: U251 glioblastoma
UACC-257 melanoma = tested on: UACC-257 melanoma
UACC-62 melanoma = tested on: UACC-62 melanoma

CCN(CC)CCNC(=O)c1c(C)[nH]c(/C=C2\C(=O)Nc3ccc(F)cc32)c1C
GI50 (786-0 renal): 1620 nM | TGI (786-0 renal): 3110 nM | GI50 (A549 NSCLC): 2580 nM | TGI (A549 NSCLC): 6970 nM | GI50 (BT-549 breast): 1580 nM | TGI (BT-549 breast): 2980 nM | GI50 (CCRF-CEM leukemia): 1580 nM | TGI (CCRF-CEM leukemia): 2940 nM | GI50 (COLO 205 colon): 3180 nM | TGI (COLO 205 colon): 7890 nM | GI50 (HCC-2998 colon): 1710 nM | TGI (HCC-2998 colon): 3320 nM | GI50 (HCT-116 colon): 1280 nM | TGI (HCT-116 colon): 2620 nM | GI50 (HCT-15 colon): 1190 nM | TGI (HCT-15 colon): 3600 nM | GI50 (HL-60(TB) leukemia): 892 nM | TGI (HL-60(TB) leukemia): 2130 nM | GI50 (HOP-62 NSCLC): 2780 nM | TGI (HOP-62 NSCLC): 8280 nM | GI50 (HS 578T breast): 1860 nM | TGI (HS 578T breast): 3730 nM | GI50 (IGROV1 ovarian): 1140 nM | TGI (IGROV1 ovarian): 5970 nM | GI50 (KM12 colon): 42.6 nM | TGI (KM12 colon): 4700 nM | GI50 (LOX IMVI melanoma): 1390 nM | TGI (LOX IMVI melanoma): 2710 nM | GI50 (MALME-3M melanoma): 1170 nM | TGI (MALME-3M melanoma): 2410 nM | GI50 (MCF7 breast): 1360 nM | TGI (MCF7 breast): 3800 nM | GI50 (MDA-MB-231 breast): 2220 nM | TGI (MDA-MB-231 breast): 5500 nM | GI50 (MDA-MB-435 melanoma): 2450 nM | TGI (MDA-MB-435 melanoma): 6530 nM | GI50 (MDA-MB-468 breast): 2940 nM | TGI (MDA-MB-468 breast): 5410 nM | GI50 (MOLT-4 leukemia): 1030 nM | TGI (MOLT-4 leukemia): 2280 nM | GI50 (NCI-H23 lung): 1910 nM | TGI (NCI-H23 lung): 4640 nM | GI50 (NCI-H322M lung): 2410 nM | TGI (NCI-H322M lung): 8960 nM | GI50 (NCI-H460 NSCLC): 1790 nM | TGI (NCI-H460 NSCLC): 5730 nM | GI50 (NCI-H522 lung): 2220 nM | TGI (NCI-H522 lung): 6490 nM | GI50 (NCI/ADR-RES ovarian): 2560 nM | TGI (NCI/ADR-RES ovarian): 6160 nM | GI50 (OVCAR-3 ovarian): 1780 nM | TGI (OVCAR-3 ovarian): 3310 nM | GI50 (OVCAR-4 ovarian): 3930 nM | TGI (OVCAR-4 ovarian): 8440 nM | GI50 (OVCAR-5 ovarian): 2670 nM | TGI (OVCAR-5 ovarian): 11200 nM | GI50 (OVCAR-8 ovarian): 2350 nM | TGI (OVCAR-8 ovarian): 6180 nM | GI50 (PC-3 prostate): 2270 nM | TGI (PC-3 prostate): 7540 nM | GI50 (RPMI-8226 leukemia): 1380 nM | TGI (RPMI-8226 leukemia): 2780 nM | GI50 (RXF 393 renal): 1880 nM | TGI (RXF 393 renal): 3530 nM | GI50 (SF-268 CNS): 4230 nM | TGI (SF-268 CNS): 13100 nM | GI50 (SF-295 CNS): 5250 nM | TGI (SF-295 CNS): 9620 nM | GI50 (SF-539 CNS): 1280 nM | TGI (SF-539 CNS): 2610 nM | GI50 (SK-MEL-2 melanoma): 1290 nM | TGI (SK-MEL-2 melanoma): 2570 nM | GI50 (SK-MEL-28 melanoma): 1660 nM | TGI (SK-MEL-28 melanoma): 3130 nM | GI50 (SK-OV-3 ovarian): 1040 nM | TGI (SK-OV-3 ovarian): 5700 nM | GI50 (SNB-19 CNS): 6080 nM | TGI (SNB-19 CNS): 13700 nM | GI50 (SNB-75 CNS): 3670 nM | TGI (SNB-75 CNS): 8240 nM | GI50 (SR leukemia): 1810 nM | TGI (SR leukemia): 3240 nM | GI50 (SW-620 colon): 1700 nM | TGI (SW-620 colon): 4290 nM | GI50 (T-47D breast): 4240 nM | TGI (T-47D breast): 8330 nM | GI50 (TK-10 renal): 3110 nM | TGI (TK-10 renal): 8020 nM | GI50 (U251 glioblastoma): 2090 nM | TGI (U251 glioblastoma): 5090 nM | GI50 (UACC-257 melanoma): 1710 nM | TGI (UACC-257 melanoma): 3100 nM | GI50 (UACC-62 melanoma): 1800 nM | TGI (UACC-62 melanoma): 4460 nM
